The record followed here is patent US20250275966A1, “GABAA RECEPTOR MODULATOR SALTS, PARTICLES, AND USES THEREOF” (Engrail Therapeutics, Inc., priority 2022, published 2025).

Data set [1] can be described thus: Oral non-human primate crossover PK study (Example 7). Type of data set: in vivo, cynomolgus monkeys. Conditions: four male cynomolgus monkeys, single PO capsule, 34.2 mg/kg fumarate salt (M-3, N-3); for C24(h): 24 hours post-dose, 30 mg/kg free base (K-13); for AUC / Tmax: equivalent on a molar basis to 30 mg/kg free base (K-13). From the text: An objective of this study is to determine the Pharmacokinetic (PK) profile of the Test Article following a single oral administration to four male non-human primate cynomolgus monkeys with one (1) week wash out periods.
Four male animals are used for this study, and the four study animals are used for each of three dosing phases with one-week washout periods. Food is withheld overnight prior to dose administration, and food is returned four hours post-dose administration. Water is provided ad libitum by automatic watering device. Two of the four animals are previously treated with Compound 1, and the other two are Compound 1 naive. Test Article (M-3, N-3, or K-13) are provided as capsulized powders; stored at room temperature protected from light in, for example, a polyolefin bottle.

Data set [2] is described as follows: Pharmacokinetic analysis of Compound 1 and its salts after oral capsule administration (Example 4). The note with it: 3 male cynomolgus monkeys, single PO capsule, 30 mg/kg, plasma Compound 1. Type of data set: in vivo, cynomolgus monkeys. On the procedure: A pharmacokinetic analysis was performed comparing administration of Compound 1 with certain salts of Compound 1 after oral (PO) administration in 3 male cynomolgus monkeys. The subjects received a single PO oral gavage of active pharmaceutical ingredient (API) (e.g., Compound 1 fumarate, Compound 1 sulfate, Compound 1 hydrochloride, Compound 1 phosphate, Compound 1 tosylate, Compound 1 malonate, Compound 1 maleate, or Compound 1 free base) in a capsule at a dose of 30 mg/kg. Following dose administration, the animals were flushed with approximately 10 milliliters of tap water to ensure all API was administered. Animals were observed twice daily and at sample collection time-points for any abnormal clinical and behavioral signs. Body weights were taken prior to dosing and weekly thereafter until study termination. Blood samples (0.5 mL) were collected pre-dose, 15 minutes, 30 minutes, and 1, 2, 4, 6, 8, 10, 12, and 24 hours post-dose. Each blood sample was collected from the monkey's femoral, saphenous or other available vein via direct venipuncture, placed into a polypropylene tube containing K2EDTA as the anticoagulant, and gently inverted several times to mix. The blood samples were kept on wet ice until centrifugation. Blood was centrifuged within 10 minutes of collection. The samples were centrifuged at a temperature of 4° C., at 3,000 g, for 5 minutes. The resulting plasma (˜0.25 mL) was divided into two equal aliquots (125 μL each) into polypropylene tubes, designated as Set A and Set B, after centrifugation. Plasma samples designated for certain metabolites (Set A) were treated with 12.5 μL of 2 M ascorbic acid (plasma: ascorbic acid=[…], v:v) prepared beforehand by combining 0.352 g of ascorbic acid into 1 mL of sterile water in a glass vial and mixing thoroughly. […] Once plasma was prepared, the samples were snap frozen on dry ice. All plasma samples were stored frozen below −70° C. until analyzed.

Data set [3] is described as follows: Intrinsic dissolution rate and solubility in 0.1 N HCl with 1% Tween 80 (USP <1087>). The data set is classed as physicochemical. Conditions: 0.1 N HCl with 1% Tween 80, 37° C. On the procedure: The intrinsic dissolution rate was determined by forming compacted pellets of approximately 75 mg of API using a compression force of 1200 pounds of force, and each pellet (die surface area: 0.5 cm^2) was immersed into a flat bottom vessel containing 500 mL of medium (aqueous 0.1 N HCl with 1% Tween 80 (polyoxyethylene (20) sorbitan monooleate)), using a Distek 2100A dissolution bath, and Distek Circulator/heater (set to 37° C.), with a paddle speed of 100 rpm. An aliquot of the sample (1 mL) was pulled from dissolution media at 15, 30, 45, 60, 75, 90, 105, and 120 minutes, filtered, and analyzed by HPLC. The slope of the dissolution profile corresponded to an intrinsic dissolution rate of hemi-fumarate salt Form B of 6.2 μg/(min·cm^2) as compared to 8.9 μg/(min·cm^2) for Compound 1 (free base). Determination of intrinsic dissolution rate (IDR) was performed for Compound 1 and seven different salts of Compound 1 according to USP <1087> in 0.1 N hydrochloric acid with 1% Tween 80 (Polyoxyethylene […] sorbitan monooleate). Compacted pellets containing approximately 75 mg API were prepared using a compression force of 1200 pounds of force, and each pellet (die surface area: 0.5 cm^2) was immersed into a flat bottom vessel containing 500 mL of medium, using a Distek 2100A dissolution bath, and Distek Circulator/heater (set to 37° C.), with a paddle speed of 100 rpm. An aliquot of the sample (1 mL) was pulled from dissolution media at 15, 30, 45, 60, 75, 90, 105, and 120 minutes, filtered, and analyzed by HPLC. HPLC for IDR and solid-state stability analyses were conducted with an Agilent 1260 Infinity system equipped with a G1311B Quad pump, […] Autosampler, G1330B auto-sampler thermostat, G1316A Thermostatted Column Compartment with a column switch valve, and […] diode array detector.

The nature of data set [4]: Exposure after oral dose of micronized vs non-micronized particles of Compound 1 free base (Example 3). Type of data set: in vivo. The note with it: male Cynomolgus monkeys, QD, 300 mg/kg, plasma, Mean (n = 3). On the procedure:
Exposure of Compound 1 free base following oral (PO) dose administration of 300 mg/kg/dose of micronized particles (Example 1) and 300 mg/kg/dose non-micronized particles (Example 2) were assessed in male Cynomolgus monkeys. Blood samples were collected in K2EDTA coated polypropylene tubes from the femoral vein and plasma was separated. Samples were drawn at the following time points: pre-dose, 15 min, 30 min, 1, 2, 4, 8, 10, 12, 14, 24, 30, and 48 hours post-dose. The concentrations of Compound 1 were determined by LC-MS/MS and pharmacokinetic parameters were determined using Phoenix WinNonlin v8.0) software. [table]

Structures can show the parent of a compound that is named as a salt.

In general, AUC refers to concentration integrated over time. In general, Tmax refers to the time from dosing to the highest level. Consider `[2H]C([2H])([2H])C(c1cc2nnc(-c3cc(F)ccc3F)n2nc1OCc1ncnn1C)(C([2H])([2H])[2H])C([2H])([2H])[2H]` [Compound K-13, 3-(2,5-difluorophenyl)-7-[1,1-di(methyl-d3)ethyl-2,2,2-d3]-6-[(1-methyl-1H-1,2,4-triazol-5-yl)methoxy]-1,2,4-triazolo[4,3-b]pyridazine], for which, in data set [1], the “C24(h)” value is 42 ng·mL, the AUC turned out to be 1192 ng·h/mL and the Tmax was 14 h.

As for `[2H]C([2H])([2H])C(c1cc2nnc(-c3cc(F)ccc3F)n2nc1OCc1ncnn1C)(C([2H])([2H])[2H])C([2H])([2H])[2H]` [Compound M-3], in data set [1], the “C24(h)” value was 603 ng·mL, the AUC was 17826 ng·h/mL and the time to peak (Tmax) is 10 h.

In the case of `[2H]C([2H])([2H])C(c1cc2nnc(-c3cc(F)ccc3F)n2nc1OCc1ncnn1C)(C([2H])([2H])[2H])C([2H])([2H])[2H]` [Compound N-3], in data set [1], the “C24(h)” value came to 684 ng·mL, the AUC worked out at 21540 ng·h/mL and the time to peak (Tmax) turned out to be 4 h.

The Cmax is the peak of the concentration-time curve. Turning to `[2H]C([2H])([2H])C(c1cc2nnc(-c3cc(F)ccc3F)n2nc1OCc1ncnn1C)(C([2H])([2H])[2H])C([2H])([2H])[2H]` [Tosylate Salt, 3-(2,5-difluorophenyl)-7-[1,1-di(methyl-d3)ethyl-2,2,2-d3]-6-[(1-methyl-1H-1,2,4-triazol-5-yl)methoxy]-1,2,4-triazolo[4,3-b]pyridazine], in data set [2], the AUClast is 23248 ng·h/mL, the Cmax turned out to be 1629 ng/mL and the Tmax came out at 10.7 h. Moreover, in data set [3] (500 mL, pellet about 75 mg, 15 min), the “Solubility, time point 15 min” value turned out to be 0.56 µg/mL. Besides, the “Solubility, time point 30 min” value in data set [3] (500 mL, pellet about 75 mg, 30 min) amounted to 0.638 µg/mL. In addition, the “Solubility, time point 45 min” value in data set [3] (500 mL, pellet about 75 mg, 45 min) came out at 0.755 µg/mL. The “Solubility, time point 60 min” value in data set [3] (500 mL, pellet about 75 mg, 60 min) was found to be 0.88 µg/mL. Further, the “Solubility, time point 75 min” value in data set [3] (500 mL, pellet about 75 mg, 75 min) was 1.02 µg/mL. The “Solubility, time point 90 min” value in data set [3] (500 mL, pellet about 75 mg, 90 min) was determined as 1.15 µg/mL. For the same compound, in data set [3] (500 mL, pellet about 75 mg, 105 min), the “Solubility, time point 105 min” value came out at 1.43 µg/mL. In addition, the “Solubility, time point 120 min” value in data set [3] (500 mL, pellet about 75 mg, 120 min) turned out to be 1.39 µg/mL. Moreover, the “Intrinsic Dissolution Rate IDR” value in data set [3] (paddle 100 rpm, die surface 0.5 cm^2) is reported as 8.7 μg/(min · cm^2). Moreover, in data set [3] (sum of the 15-120 min time points), the “Solubility, Cumulative” value was found to be 7.823 µg/mL.

By AUC(0-inf) is commonly meant the area under the concentration-time curve extrapolated to infinity. By AUC(0-t) is commonly meant the area under the concentration-time curve up to a stated or last time point. A higher AUC(0-t) goes with more exposure. As to `[2H]C([2H])([2H])C(c1cc2nnc(-c3cc(F)ccc3F)n2nc1OCc1ncnn1C)(C([2H])([2H])[2H])C([2H])([2H])[2H]` [micronized, 3-(2,5-difluorophenyl)-7-[1,1-di(methyl-d3)ethyl-2,2,2-d3]-6-[(1-methyl-1H-1,2,4-triazol-5-yl)methoxy]-1,2,4-triazolo[4,3-b]pyridazine], in data set [4], the AUClast/Dose worked out at 530 ± 537 kg·ng·h/mL/mg and the “AUC∞/Dose” value was 650 ± 730 kg·ng·h/mL/mg. Moreover, in data set [4] (male, cynomolgus monkey, po), the AUC(0-inf) turned out to be 195000 ± 219000 ng·h/mL and the AUC(0-t) is 159000 ± 161000 ng·h/mL. The Cmax in data set [4] (male, cynomolgus monkey, po, read-out: Cmax) amounted to 6900 ± 5500 ng/mL. Besides, the Tmax in data set [4] (male, cynomolgus monkey, po, read-out: Tmax) was found to be 4 ± 3.5 h.

For `[2H]C([2H])([2H])C(c1cc2nnc(-c3cc(F)ccc3F)n2nc1OCc1ncnn1C)(C([2H])([2H])[2H])C([2H])([2H])[2H]` [non-micronized, 3-(2,5-difluorophenyl)-7-[1,1-di(methyl-d3)ethyl-2,2,2-d3]-6-[(1-methyl-1H-1,2,4-triazol-5-yl)methoxy]-1,2,4-triazolo[4,3-b]pyridazine], in data set [4], the AUClast was found to be 89225 ± 104664 ng·h/mL, the AUClast/Dose stood at 297 ± 349 kg·ng·h/mL/mg, the “AUC∞” value came to 98365 ± 119106 ng·h/mL and the “AUC∞/Dose” value came to 328 ± 397 kg·ng·h/mL/mg. Also, in data set [4], the Cmax is on record as 5373 ± 4112 ng/mL and the Tmax came to 3.30 ± 1.20 h.
